Measured values as given in paper PMC2714694, “Conservation of the glucan phosphatase laforin is linked to rates of molecular evolution and the glucan metabolism of the organism” (BMC Evolutionary Biology, 2009).

Biological target: T1, Nv-laforin (Nematostella vectensis, UniProt A7SVW9)
T1 construct: gene NEMVEDRAFT_v1g194103; complete open reading frame from Nematostella DNA; GST-Nv-laforin-HIS6 from E. coli BL21 (DE3) CodonPlus RIL; CBM20 plus DSP
T1 sequence (A7SVW9 1-324): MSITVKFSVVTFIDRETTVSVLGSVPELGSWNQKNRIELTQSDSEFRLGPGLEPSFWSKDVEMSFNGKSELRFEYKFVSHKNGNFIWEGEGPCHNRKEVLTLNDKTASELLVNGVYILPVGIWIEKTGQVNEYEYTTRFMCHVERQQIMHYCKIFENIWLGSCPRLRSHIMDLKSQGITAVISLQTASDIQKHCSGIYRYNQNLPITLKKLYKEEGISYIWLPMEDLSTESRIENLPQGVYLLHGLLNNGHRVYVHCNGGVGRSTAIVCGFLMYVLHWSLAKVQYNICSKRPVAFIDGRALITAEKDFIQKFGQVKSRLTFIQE
Test: p-NPP hydrolysis, absorbance […] nm
Type: biochemical
Conditions: 50 mM pNPP, pH 5-8 tested (optimum pH 7.5), 37 °C, 2 mM dithiothreitol, 0.1 M sodium acetate, 0.05 M bis-Tris, 0.05 M Tris-HCl

O=[N+]([O-])c1ccc(OP(=O)(O)O)cc1 [para-nitrophenylphosphate]
p-NPP hydrolysis, absorbance 410 nm: Both Bf- and Nv-laforin also utilized p-NPP as an artificial substrate
